# Reference: patent publication US20220402867A1, “SULFO-SUBSTITUTED BIARYL COMPOUND OR SALT THEREOF, PREPARATION METHOD THEREFOR, AND USE THEREOF” (Shanghai Litedd Co., Ltd., priority 2019, published 2022)
# What was measured:
# GST-RORγ LBD (263-509) = target: T1, GST-RORγ LBD (263-509) (Homo sapiens, UniProt P51449); experiment: TR-FRET assay of agonistic activity on RORγ receptor; assay type: biochemical; conditions: for EC50: TR-FRET, GST-RORγ LBD with Biotin-SRC1
# T1 construct: GST-RORγ LBD ((263-509) (produced at ChemPartner))
# T1 sequence (P51449 263-509): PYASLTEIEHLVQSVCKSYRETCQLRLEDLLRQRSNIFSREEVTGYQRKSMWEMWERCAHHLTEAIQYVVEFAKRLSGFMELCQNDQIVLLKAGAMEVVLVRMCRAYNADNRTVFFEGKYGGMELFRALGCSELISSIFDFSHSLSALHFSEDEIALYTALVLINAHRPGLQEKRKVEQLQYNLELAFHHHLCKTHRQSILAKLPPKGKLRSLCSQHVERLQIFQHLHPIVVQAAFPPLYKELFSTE
# Protocol: A time-resolved fluorescence resonance energy transfer (TR-FRET) assay was used for the compounds of the present disclosure, to determine the agonistic activity of the compounds on the RORγ protein receptor. The agonistic activity is expressed by the concentration for 50% of maximal effect (EC50). The experiment was performed basically with reference to the methods described in ONCOIMMUNOLOGY, 2016, VOL. 5, NO. 12, e1254854.
# 1. Preparation of RORγ Basal Buffer
# A 100 mL basal buffer was prepared, mixed homogeneously and stored for use;
# The compounds of the examples shown in the table below were prepared into solutions with DMSO as the solvent, serially diluted at 3-fold dilution to 10 concentrations starting from 10 mM, and added to the corresponding wells of a 384-well plate with each concentration of each compound in duplicate;
# a. A 75 nM solution of GST-RORγ LBD ((263-509) (produced at ChemPartner)) and a 4 nM solution of Biotin-SRC1 (Glsbiochem) were prepared with the above basal buffer. The two solutions were 1:1 mixed evenly, and 10 μL of the mixed solution was added into each well of the above 384-well plate. The plate was immediately centrifugated at 1000 rpm for 10 seconds; b. A 1 nM solution of Anti-GST Eu (Cisbio, #61GSTKLA) and a 50 nM solution of SA-APC (Cisbio, […]) were prepared with the above basal buffer. The two solutions were 1:1 mixed evenly, and 10 μL of the mixed solution was added into each well of the above 384-well plate. The plate was immediately centrifugated at 1000 rpm for 10 seconds; c. The resulting 384-well plate was incubated at room temperature for 15 minutes. Data were read on an Envision microplate reader, EC50 values and E max % were calculated.
# a. Readings were taken at 665 nm and 615 nm wavelengths respectively on the Envision Microplate Reader, and the ratios between them were normalized. b. Calculation was carried out with the following equation: […]
# wherein X is the reading of compounds, Min is the reading of the blank solution, and Max is the reading of 10 μM SRC. c. The concentration-response curve data were fitted by a four-parameter logistic nonlinear regression model, and Emax was the TOP value of the fitted curve.
# [1] = Pharmacokinetic (PK) assay in mice; assay type: in vivo; conditions: CD-1 mice
# Protocol: The PK of each compound was determined as follows: 6 CD-1 mice (obtained from Shanghai Lingchang Biotechnology Co., Ltd.) were divided into two groups, 3 mice in each group. One group was administered intravenously at a dose of 1 mg/kg, and the vehicle was 5% DMSO/40% PEG400/55% (20% 3-CD); one group was administered by oral gavage at a dose of 5 mg/kg, and the vehicle was DMSO/1% methylcellulose (1:99). Blood samples were collected from saphenous vein of lower leg in each group at 0, 0.083, 0.25, 0.5, 1, 2, 4, 6, 8 and 24 h after administration. Approximately 40 μL of the blood samples were collected into anticoagulant tubes containing EDTA-K2. Immediately after collection, the tubes were inverted at least 5 times to ensure uniform mixing, and then placed on ice. The blood samples collected at each time point were centrifuged at 4° C., 8000 rpm for 5 minutes to obtain plasma. Another 1.5 mL centrifuge tube was marked with the compound name, animal number, and time point, and the plasma was transferred to this tube. The plasma was stored at −80° C. until analysis.
# Compound concentrations in plasma were determined by UPLC-MS/MS method, and the pharmacokinetic parameters were calculated by Phoenix WinNolin 6.4 pharmacokinetic software on the obtained data.
# [2] = target: T2, RORγt (RORγ-LBD chimeric receptor) (Homo sapiens, UniProt P51449); experiment: Luciferase reporter gene assay of RORγt agonistic activity in HEK293T cells; assay type: cell-based; design: Emax: dose or concentration left out as unconfirmed; conditions: for EC50: HEK293T, GAL4 luciferase reporter, read-out: EC50; for Emax: HEK-293T
# T2 construct: host or cells: HEK293T
# T2 sequence (P51449 269-508 limits assumed): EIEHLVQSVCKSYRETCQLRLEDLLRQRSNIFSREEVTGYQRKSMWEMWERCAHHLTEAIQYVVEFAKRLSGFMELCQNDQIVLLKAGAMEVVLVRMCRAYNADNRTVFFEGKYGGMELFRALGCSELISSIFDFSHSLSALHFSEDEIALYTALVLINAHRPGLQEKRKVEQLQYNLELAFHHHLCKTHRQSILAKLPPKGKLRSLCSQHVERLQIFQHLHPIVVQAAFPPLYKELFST
# From the text: This assay was basically carried out according to the method described in the literature ONCOIMMUNOLOGY, 2016, VOL. 5, NO. 12, e1254854.
# The RORγ-LBD coding sequence was inserted into pBIND plasmid (Promega, E1581). This expression vector and a reporter vector (pGL4.35 carrying a stably integrated luciferase reporter gene driven by GAL4 promoter) were co-expressed in HEK293T host cells. When the agonist binds to the corresponding chimeric receptor, the chimeric receptor binds to the GAL4 binding site on the reporter gene carrier and stimulates reporter gene expression. The agonistic activity of the compound on RORγ was determined according to the intensity of the chemiluminescence signal.
# 1.1 All test compounds were serially diluted at 3-fold dilution with DMSO, with 10 serial dilutions starting from 10 mM; LIT-00093 solution was prepared similarly. […] 1.4 The compound plate was sealed and shaken for 5 min.
# Cells were cultured according to ATCC standard operation, and 6*10^6 HEK293T cells were seeded into 100 mm cell culture dishes, cultured overnight in a 37° C., 5% CO2 incubator, and then transfected. Compounds of corresponding concentrations were added for treatment, and the Steady-Glo™ kit (Lot E 2520) was used for further detection.
# Chemiluminescence values were detected with Envision 2104; EC50 values were calculated.
# % Activity was calculated with the following equation: […]
# RLU: […] R L Upositive: average value of positive control R L Uvehicle: average value of negative control
# The log values of the compound concentration and % Activity were fitted using Graphad 8.0, to calculate EC50s of the compounds.
# [3] = Metabolic stability in human liver microsomes; assay type: in vitro ADME; conditions: for microsomal CLint: 0.5 mg protein/mL
# From the text: (§1) According to standard methods of in vitro metabolic stability studies in the art, eg., the methods described in Kerns, Edward H. and Di Li (2008). Drug-like Properties: Concepts, Structure Design and Methods: from ADME to Toxicity Optimization. San Diego: Academic Press; Di, Li et al., Optimization of a Higher Throughput Microsomal Stability Screening Assay for Profiling Drug Discovery Candidates, J. Biomol. Screen. 2003, The method described in 8(4), 453, the liver microsomal metabolic stability test of the compounds of the present disclosure was carried out analogously as follows.
# (§2) The incubation system contained 0.5 mg protein/mL microsomes, cofactors, and PBS, was pre-incubated at 37° C. for 3 min, and then added the substrate (i.e., the test compounds) to initiate the reaction. Samples were taken at 0, 1, 5, 10, 15, 20, 30 and 60 min from the start of the reaction, and an appropriate terminator was added to terminate the reaction.
# (§3) The terminator was an ice acetonitrile solution containing 100 ng/mL tolbutamide and 100 ng/mL labetalol.
# (§4) Sample treatment (n=3): each appropriate sample was added, vortexed and centrifuged at high speed. The supernatants were collected, and the substrate was detected by HPLC-MS/MS. The peak area at the 0 min was taken as 100%. The peak areas at other time points were converted to percentage of the remaining amount. The natural logarithms of the percentage of remaining amount at each time point was plotted against the incubation time, and the slope (−k) was calculated by linear regression. Then, Clint (uL/min/mg) and half-life (T½, min) of the compounds were calculated following the equation of the inherent clearance rate (Clint)=(k* volume of incubation solution)/mass of liver microsomes.
# [4] = Metabolic stability in mouse liver microsomes; assay type: in vitro ADME, CD-1 mice; conditions: for half-life: CD-1; for microsomal CLint: CD-1, 0.5 mg protein/mL
# From the text: as §1, §2, §3, §4
# [5] = maximum activation rate, TOP of fitted curve
SMILES,EC50 (GST-RORγ LBD (263-509)) [nM],Emax % (GST-RORγ LBD (263-509); [5]) [%],"CL_obs ([1]; IV 1 mg/kg, values marked **)","AUC(0-t) ([1]; mouse, plasma, IV 1 mg/kg) [ng·h/mL]","Cmax ([1]; mouse, plasma, IV 1 mg/kg) [ng/mL]","half-life ([1]; mouse, plasma, IV 1 mg/kg) [h]","Vd ([1]; mouse, plasma, IV 1 mg/kg, values marked *, read-out: Vss) [L/kg]","bioavailability ([1]; mouse, plasma, Po 5 mg/kg vs IV 1 mg/kg) [%]","AUC(0-t) ([1]; mouse, plasma, Po 5 mg/kg) [ng·h/mL]","Cmax ([1]; mouse, plasma, Po 5 mg/kg) [ng/mL]","half-life ([1]; mouse, plasma, Po 5 mg/kg) [h]",Emax (GST-RORγ LBD (263-509); [5]) [%],EC50 [2] [nM],Emax [2] [%],half-life [3] [h],microsomal CLint [3] [µL/min/mg],% Remaining (T = 60 min) [3] [%],% Remaining (T = 60 min) [4] [%],half-life [4] [h],microsomal CLint [4] [µL/min/mg]
"CCS(=O)(=O)c1ccc(C(COC)C(=O)Nc2cc(Cl)c(-c3ccc(S(=O)(=O)C4CC4)cc3)c(Cl)c2)cc1 (single isomer, unassigned) [Example 41, (S)—N-(2,6-dichloro-4′-(cyclopropylsulfonyl)-[1,1′-biphenyl]-4-yl)-2-(4-(ethylsulfonyl)phenyl)-3-methoxypropionamide or (R)—N-(2,6-dichloro-4′-(cyclopropylsulfonyl)-[1,1′-biphenyl]-4-yl)-2-(4-(ethylsulfonyl)phenyl)-3-methoxypropionamide]",24.6,174.7,15.4** mL/min/kg,1060,601,1.7,2.02,116,6380,1450,2.72,,,,,,,,,
"CCS(=O)(=O)c1ccc(CC(=O)Nc2cc(Cl)c(-c3ccc(S(=O)(=O)CC)cc3)c(Cl)c2)cc1 [Example 1, N-(2,6-Dichloro-4′-(ethylsulfonyl)-[1,1′-biphenyl]-4-yl)-2-(4-(ethylsulfonyl)phenyl)acetamide]",14.5,,,,,,,,,,,213,47,87.1,0.697,33.1,32.4,11.70,0.342,67.6
"CCS(=O)(=O)c1ccc(CC(=O)Nc2cc(Cl)c(-c3ccc(S(=O)(=O)C(C)C)cc3)c(Cl)c2)cc1 [Example 3, N-(2,6-Dichloro-4′-(isopropylsulfonyl)-[1,1′-biphenyl]-4-yl)-2-(4-(ethylsulfonyl)phenyl)acetamide]",14,,,,,,,,,,,223,14,50.5,0.232,,4.6,,,
"CS(=O)(=O)c1ccc(-c2c(Cl)cc(NC(=O)Cc3ccc(S(C)(=O)=O)cn3)cc2Cl)cc1 [Example 10, N-(2,6-Dichloro-4′-(methylsulfonyl)-[1,1′-biphenyl]-4-yl)-2-(5-(methylsulfonyl)pyridin-2-yl)acetamide]",114,,,,,,,,,,,159,1460,59,> 2.42,< 9.6,92.5,89.90,> 2.42,< 9.6

# Now those with a lower EC50 (GST-RORγ LBD (263-509)), led by results:
EC50 (GST-RORγ LBD (263-509)) [nM],Emax % (GST-RORγ LBD (263-509); [5]) [%],"CL_obs ([1]; IV 1 mg/kg, values marked **)","AUC(0-t) ([1]; mouse, plasma, IV 1 mg/kg) [ng·h/mL]","Cmax ([1]; mouse, plasma, IV 1 mg/kg) [ng/mL]","half-life ([1]; mouse, plasma, IV 1 mg/kg) [h]","Vd ([1]; mouse, plasma, IV 1 mg/kg, values marked *, read-out: Vss) [L/kg]","bioavailability ([1]; mouse, plasma, Po 5 mg/kg vs IV 1 mg/kg) [%]","AUC(0-t) ([1]; mouse, plasma, Po 5 mg/kg) [ng·h/mL]","Cmax ([1]; mouse, plasma, Po 5 mg/kg) [ng/mL]","half-life ([1]; mouse, plasma, Po 5 mg/kg) [h]",Emax (GST-RORγ LBD (263-509); [5]) [%],EC50 [2] [nM],Emax [2] [%],half-life [3] [h],microsomal CLint [3] [µL/min/mg],% Remaining (T = 60 min) [3] [%],% Remaining (T = 60 min) [4] [%],half-life [4] [h],microsomal CLint [4] [µL/min/mg],SMILES
10,,,,,,,,,,,169,41,39.4,> 2.42,< 9.6,80.1,88.20,> 2.42,< 9.6,"CS(=O)(=O)c1ccc(CC(=O)Nc2cc(Cl)c(-c3ccc(S(C)(=O)=O)cc3)c(Cl)c2)cc1 [Example 7, N-(2,6-Dichloro-4′-(methylsulfonyl)-[1,1′-biphenyl]-4-yl)-2-(4-(methylsulfonyl)phenyl)acetamide]"
7,,,,,,,,,,,179,139,73.8,,,,,,,"CCS(=O)(=O)c1ccc(C(CO)C(=O)Nc2cc(Cl)c(-c3ccc(S(=O)(=O)C4CC4)cc3)c(Cl)c2)cc1 (centres unmarked) [Example 22-1, N-(2,6-Dichloro-4′-(cyclopropylsulfonyl)-[1,1′-biphenyl]-4-yl)-2-(4-(ethylsulfonyl)phenyl)-3-hydroxypropionamide]"
13.3,,,,,,,,,,,202,93,69.8,,,,,,,"CS(=O)(=O)c1ccc(C(CO)C(=O)Nc2cc(Cl)c(-c3ccc(S(=O)(=O)C4CC4)cc3)c(Cl)c2)cc1 (centres unmarked) [Example 33, N-(2,6-Dichloro-4′-(cyclopropylsulfonyl)-[1,1′-biphenyl]-4-yl)-2-(4-(methylsulfonyl)phenyl)-3-hydroxypropionamide]"
12.6,,,,,,,,,,,194,105,60.7,,,,,,,"COCC(C(=O)Nc1ccc(-c2ccc(S(=O)(=O)C3CC3)cc2)c(C(F)(F)F)c1)c1ccc(S(C)(=O)=O)cc1 (centres unmarked) [Example 42, N-(4′-(Cyclopropylsulfonyl)-2-(trifluoromethyl)-[1,1′-biphenyl]-4-yl)-3-methoxy-2-(4-(methylsulfonyl)phenyl)propionamide]"
